# Test results taken from patent publication US8563730B2, “Pyrazole and fused pyrazole glucokinase activators” (Takeda San Diego, Inc., priority 2008, dated 2013).
# pEC50: −log10 of the molar value.
# Target: T1, GK (glucokinase, residues 12-465) (Homo sapiens, UniProt P35557)
# T1 construct: I.D. No. 1 corresponds to residues 12-465 of glucokinase; made in house; host or cells: DH10b-T1r E. coli
# T1 sequence (P35557 with tags, fused parts or gaps isoform P35557-2): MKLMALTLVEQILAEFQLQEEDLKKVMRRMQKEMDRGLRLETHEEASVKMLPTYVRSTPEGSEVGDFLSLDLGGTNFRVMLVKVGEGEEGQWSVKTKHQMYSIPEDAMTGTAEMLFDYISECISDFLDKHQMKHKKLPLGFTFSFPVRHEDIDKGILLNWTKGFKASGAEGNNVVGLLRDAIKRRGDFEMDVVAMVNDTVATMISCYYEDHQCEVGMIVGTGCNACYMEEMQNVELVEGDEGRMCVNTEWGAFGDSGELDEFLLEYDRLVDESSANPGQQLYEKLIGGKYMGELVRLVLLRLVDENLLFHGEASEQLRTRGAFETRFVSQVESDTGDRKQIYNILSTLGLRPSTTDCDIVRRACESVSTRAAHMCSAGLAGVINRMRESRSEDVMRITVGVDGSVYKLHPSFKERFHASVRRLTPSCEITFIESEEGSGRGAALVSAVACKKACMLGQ
# Experiment: enzymatic glucokinase activity assay (ATP consumption, KinaseGlo luminescence)
# Format: biochemical
# Settings: 5 μM ATP, 5 mM Glucose, reported as bins; for pEC50: Kact = concentration that displays 50% of the maximal increase in GK activity, 60 min, room temperature, read-out: pKact; for Emax: calculated maximal gain in GK enzyme activity at a saturating concentration of the compound, read-out: % ACTmax
# Description: The activity of compounds as glucokinase activators may be assayed in vitro, in vivo or in a cell line. Provided below is an enzymatic glucokinase activity assay.
# Purified glucokinase may be obtained as follows. […] SEQ.
# The expression of recombinant glucokinase protein may be carried out by transformation and growth of DH10b-T1r E. coli cells incorporating the (pFLAG-CTC) plasmid in LB media. Protein expression can be induced in this system by the addition of IPTG to the culture medium.
# Recombinant protein may be isolated from cellular extracts by passage over Sepharose Q Fast Flow resin (Pharmacia). This partially purified GK extract may then be further purified by a second passage over Poros HQ10 (Applied Biosystems). The purity of GK may be determined on denaturing SDS-PAGE gel. Purified GK may then be concentrated to a final concentration of 20.0 mg/ml. After flash freezing in liquid nitrogen, the proteins can be stored at −78° C. in a buffer containing 25 mM TRIS-HCl pH 7.6, 50 mM NaCl, and 0.5 mM TCEP.
# The activation properties of compounds for GK may be determined using a black 384-well-plate format under the following reaction conditions: 25 mM Hepes pH 7.2, 25 mM NaCl, 10 mM MgCl2, 0.01% Brij35, 1 mM DTT, 5 μM ATP, 5 mM Glucose 2% DMSO. The amount of ATP consumed may be determined quantitatively by addition of equal volume of luciferase reagent (luciferase+beetle luciferin—KinaseGlo Luminescent Kinase Assay kit from Promega). The luminescence intensity may be measured by using the Analyst HT from LJL Biosystems.
# The reaction mixture may then be incubated at room temperature for 60 min, and quenched and developed by addition of 10 μL of luciferase reagent. Luminescence intensities of the resulting reaction mixtures may be measured after a 10 min incubation at room temperature. The luminescence intensity may be measured by using the Analyst HT from LJL Biosystems.
# pKact and % ACTmax values may be calculated by non-linear curve fitting of the compound concentrations and luminescence intensities to a standard inhibition/activation equation.
Compound,pEC50,Emax [%]
"CC(C)(C)S(=O)(=O)c1cnn(C(CC2CCOCC2)C(=O)Nc2ncc(F)s2)c1 (stereo not drawn) [Compound 49, 2-(4-(tert-butylsulfonyl)-1H-pyrazol-1-yl)-N-(5-fluorothiazol-2-yl)-3-(tetrahydro-2H-pyran-4-yl)propanamide]",4.90 to 5.40,90 to 100
"O=C1CCC(CC(C(=O)Nc2ncc(F)s2)n2cc(S(=O)(=O)C3CC3)cn2)C1 (stereo not drawn) [Compound 50, 2-(4-(cyclopropylsulfonyl)-1H-pyrazol-1-yl)-N-(5-fluorothiazol-2-yl)-3-(3-oxocyclopentyl)propanamide]",≤ 4.80,≤ 90
"O=C(Nc1ncc(Cl)s1)C(CC1CCOCC1)n1cc2cc(S(=O)(=O)C3CC3)ccc2n1 (stereo not drawn) [Compound 51, N-(5-chlorothiazol-2-yl)-2-(5-(cyclopropylsulfonyl)-2H-indazol-2-yl)-3-(tetrahydro-2H-pyran-4-yl)propanamide]",5.90 to 6.40,≥ 111
"CC(C)(C)S(=O)(=O)c1cnn([C@H](CC2CCOCC2)C(=O)Nc2ncc(F)s2)c1 [Compound 52, (R)-2-(4-(tert-butylsulfonyl)-1H-pyrazol-1-yl)-N-(5-fluorothiazol-2-yl)-3-(tetrahydro-2H-pyran-4-yl)propanamide]",≤ 4.80,90 to 100
"CC(C)(C)S(=O)(=O)c1cnn([C@@H](CC2CCOCC2)C(=O)Nc2ncc(F)s2)c1 [Compound 53, (S)-2-(4-(tert-butylsulfonyl)-1H-pyrazol-1-yl)-N-(5-fluorothiazol-2-yl)-3-(tetrahydro-2H-pyran-4-yl)propanamide]",≤ 4.80,≤ 90
"O=C1CC[C@H](C[C@@H](C(=O)Nc2ncc(F)s2)n2cc(S(=O)(=O)C3CC3)cn2)C1 [Compound 54, (S)-2-(4-(cyclopropylsulfonyl)-1H-pyrazol-1-yl)-N-(5-fluorothiazol-2-yl)-3-((R)-3-oxocyclopentyl)propanamide]",4.90 to 5.40,≤ 90
"O=C1CC[C@@H](C[C@@H](C(=O)Nc2ncc(F)s2)n2cc(S(=O)(=O)C3CC3)cn2)C1 [Compound 55, (S)-2-(4-(cyclopropylsulfonyl)-1H-pyrazol-1-yl)-N-(5-fluorothiazol-2-yl)-3-((S)-3-oxocyclopentyl)propanamide]",4.90 to 5.40,≤ 90
"O=C1CC[C@H](C[C@H](C(=O)Nc2ncc(F)s2)n2cc(S(=O)(=O)C3CC3)cn2)C1 [Compound 56, (R)-2-(4-(cyclopropylsulfonyl)-1H-pyrazol-1-yl)-N-(5-fluorothiazol-2-yl)-3-((R)-3-oxocyclopentyl)propanamide]",≤ 4.80,≤ 90
NC(=O)c1cnc(NC(=O)C(CC2CCCC2)n2cc(S(=O)(=O)C3CC3)cn2)s1 (stereo not drawn) [Compound 57],4.90 to 5.40,101 to 105
"O=C(Nc1ncc(Cl)s1)[C@@H](CC1CCOCC1)n1cc(S(=O)(=O)C2CCCC2)cn1 [Compound 58, (R)-N-(5-chlorothiazol-2-yl)-2-(4-(cyclopentylsulfonyl)-1H-pyrazol-1-yl)-3-(tetrahydro-2H-pyran-4-yl)propanamide]",≤ 4.80,101 to 105
"O=C(Nc1ncc(Cl)s1)C(CC1CCOCC1)n1ncc2c(S(=O)(=O)C3CC3)cccc21 (stereo not drawn) [Compound 59, N-(5-chlorothiazol-2-yl)-2-(4-(cyclopropylsulfonyl)-1H-indazol-1-yl)-3-(tetrahydro-2H-pyran-4-yl)propanamide]",≥ 6.50,106 to 110
"O=C(Nc1ncc(Cl)s1)C(CC1CCOCC1)n1ncc2ccc(S(=O)(=O)C3CC3)cc21 (stereo not drawn) [Compound 60, N-(5-chlorothiazol-2-yl)-2-(6-(cyclopropylsulfonyl)-1H-indazol-1-yl)-3-(tetrahydro-2H-pyran-4-yl)propanamide]",≤ 4.80,≤ 90
"O=C(Nc1cnccn1)C(CC1CCCC1)n1ncc2c(S(=O)(=O)C3CC3)cccc21 (stereo not drawn) [Compound 61, 3-cyclopentyl-2-(4-(cyclopropylsulfonyl)-1H-indazol-1-yl)-N-(pyrazin-2-yl)propanamide]",5.90 to 6.40,90 to 100
"O=C(Nc1ncc(F)s1)C(CC1CCCC1)n1ncc2c(S(=O)(=O)C3CC3)cccc21 (stereo not drawn) [Compound 62, 3-cyclopentyl-2-(4-(cyclopropylsulfonyl)-1H-indazol-1-yl)-N-(5-fluorothiazol-2-yl)propanamide]",5.90 to 6.40,90 to 100

# More lines, now with the values ahead:
pEC50,Emax [%],Compound
4.90 to 5.40,≥ 111,"O=C(Nc1ncc(Cl)s1)[C@@H](CC1CCOCC1)n1ncc2c(S(=O)(=O)C3CC3)cccc21 [Compound 63, (R)-N-(5-chlorothiazol-2-yl)-2-(4-(cyclopropylsulfonyl)-1H-indazol-1-yl)-3-(tetrahydro-2H-pyran-4-yl)propanamide]"
≥ 6.50,≥ 111,"O=C(Nc1ncc(Cl)s1)[C@H](CC1CCOCC1)n1ncc2c(S(=O)(=O)C3CC3)cccc21 [Compound 64, (S)-N-(5-chlorothiazol-2-yl)-2-(4-(cyclopropylsulfonyl)-1H-indazol-1-yl)-3-(tetrahydro-2H-pyran-4-yl)propanamide]"
5.90 to 6.40,90 to 100,"O=C(Nc1cnccn1)C(CC1CCOCC1)n1ncc2c(S(=O)(=O)C3CC3)cccc21 (stereo not drawn) [Compound 65, 2-(4-(cyclopropylsulfonyl)-1H-indazol-1-yl)-N-(pyrazin-2-yl)-3-(tetrahydro-2H-pyran-4-yl)propanamide]"
≥ 6.50,101 to 105,"O=C(Nc1ncc(F)s1)C(CC1CCOCC1)n1ncc2c(S(=O)(=O)C3CC3)cccc21 (stereo not drawn) [Compound 66, 2-(4-(cyclopropylsulfonyl)-1H-indazol-1-yl)-N-(5-fluorothiazol-2-yl)-3-(tetrahydro-2H-pyran-4-yl)propanamide]"
≥ 6.50,106 to 110,"O=C(Nc1ncc(Cl)s1)C(CC1CCOCC1)n1ncc2c(S(=O)(=O)C3CC3)cc(F)cc21 (stereo not drawn) [Compound 67, N-(5-chlorothiazol-2-yl)-2-(4-(cyclopropylsulfonyl)-6-fluoro-1H-indazol-1-yl)-3-(tetrahydro-2H-pyran-4-yl)propanamide]"
4.90 to 5.40,101 to 105,"O=C(Nc1ncc(F)s1)[C@@H](CC1CCOCC1)n1ncc2c(S(=O)(=O)C3CC3)cccc21 [Compound 68, (R)-2-(4-(cyclopropylsulfonyl)-1H-indazol-1-yl)-N-(5-fluorothiazol-2-yl)-3-(tetrahydro-2H-pyran-4-yl)propanamide]"
≥ 6.50,106 to 110,"O=C(Nc1ncc(F)s1)[C@H](CC1CCOCC1)n1ncc2c(S(=O)(=O)C3CC3)cccc21 [Compound 69, (S)-2-(4-(cyclopropylsulfonyl)-1H-indazol-1-yl)-N-(5-fluorothiazol-2-yl)-3-(tetrahydro-2H-pyran-4-yl)propanamide]"
5.50 to 5.80,101 to 105,"O=C(Nc1ncc(Cl)s1)C(CC1CCOCC1)n1cc2c(S(=O)(=O)C3CC3)cccc2n1 (stereo not drawn) [Compound 70, N-(5-chlorothiazol-2-yl)-2-(4-(cyclopropylsulfonyl)-2H-indazol-2-yl)-3-(tetrahydro-2H-pyran-4-yl)propanamide]"
5.50 to 5.80,≤ 90,"O=C1CC[C@H](CC(C(=O)Nc2cnccn2)n2ncc3c(S(=O)(=O)C4CC4)cccc32)C1 (stereo partly drawn) [Compound 71, 2-(4-(cyclopropylsulfonyl)-1H-indazol-1-yl)-3-((R)-3-oxocyclopentyl)-N-(pyrazin-2-yl)propanamide]"
≥ 6.50,≤ 90,"COc1cc(S(=O)(=O)C2CC2)c2cnn(C(CC3CCOCC3)C(=O)Nc3ncc(F)s3)c2c1 (stereo not drawn) [Compound 72, 2-(4-(cyclopropylsulfonyl)-6-methoxy-1H-indazol-1-yl)-N-(5-fluorothiazol-2-yl)-3-(tetrahydro-2H-pyran-4-yl)propanamide]"
